Values joined by “and” are separate entries in the source; they are usually repeats but may differ in a detail not shown here. Identical values can stand only once. ± gives the uncertainty stated by the source.
Assay: xn = mol fraction of the nth substance listed

CCCCCCC(C)O (stereo not drawn) + Brc1ccccc1
viscosity [mPa·s], 101 kPa
Conditions	298.15 K	303.15 K
x2 = 0.0495	5.76 ± 0.031	4.559 ± 0.026
x2 = 0.1184	4.748 ± 0.027	3.795 ± 0.022
x2 = 0.1814	4.027 ± 0.023	3.25 ± 0.019
x2 = 0.2506	3.367 ± 0.02	2.769 ± 0.016
x2 = 0.2943	3.034 ± 0.018	2.532 ± 0.015
x2 = 0.3711	2.576 ± 0.016	2.178 ± 0.014
x2 = 0.4297	2.285 ± 0.015	1.961 ± 0.013
x2 = 0.5077	1.983 ± 0.013	1.738 ± 0.012
x2 = 0.5834	1.766 ± 0.013	1.554 ± 0.011
x2 = 0.6524	1.587 ± 0.012	1.418 ± 0.011
x2 = 0.7315	1.41 ± 0.011	1.275 ± 0.01
x2 = 0.8025	1.3 ± 0.011	1.174 ± 0.01
x2 = 0.8722	1.192 ± 0.01	1.093 ± 0.01
x2 = 0.9483	1.107 ± 0.01	1.03 ± 0.01

CCCCCCC(C)O (stereo not drawn) + C1CCCCC1
303.15 K, 101.33 kPa
Conditions	viscosity [mPa·s]
x1 = 0.0999	0.9208 ± 0.011
x1 = 0.2048	1.086 ± 0.013
x1 = 0.303	1.317 ± 0.016
x1 = 0.3982	1.601 ± 0.019
x1 = 0.4667	1.847 ± 0.022
x1 = 0.5235	2.072 ± 0.024
x1 = 0.5347	2.124 ± 0.025
x1 = 0.6961	2.908 ± 0.033
x1 = 0.7992	3.516 ± 0.04
x1 = 0.899	4.161 ± 0.047

c1c[nH]cn1 + CC(=O)O
101 kPa, x1 = 0.5
Conditions	viscosity [mPa·s]
303.15 K	54 ± 10
323.15 K	20

NCCNCCNCCN + CC(C)(N)CO
viscosity [mPa·s], 101 kPa
Conditions	x1 = 0.0971	x1 = 0.2071	x1 = 0.289	x1 = 0.3787	x1 = 0.4776	x1 = 0.5872	x1 = 0.7092	x1 = 0.8458	x1 = 0.9205
303.15 K	93.54 ± 9.4	86.24 ± 8.7	80.73 ± 8.1	74.33 ± 7.5	67.05 ± 6.7	58.76 ± 5.9	49.22 ± 4.9	38.21 ± 3.8	32.14 ± 3.2
313.15 K	45.15 ± 4.5	42.38 ± 4.2	40.21 ± 4	37.61 ± 3.8	34.58 ± 3.5	30.81 ± 3.1	26.45 ± 2.6	21.3 ± 2.1	18.55 ± 1.9
323.15 K	23.64 ± 2.4	22.83 ± 2.3	22.02 ± 2.2	20.95 ± 2.1	19.54 ± 2	17.81 ± 1.8	15.76 ± 1.6	13.05 ± 1.3	11.61 ± 1.2

CCCCCCCCCC(=O)O + CC(C)[C@@H]1CC[C@@H](C)C[C@H]1O
viscosity [mPa·s]
Conditions	293.15 K	298 K	298.15 K	303.15 K	308.15 K	313.15 K	318.15 K	323.15 K
100 kPa, x1 = 0.333	28.37 ± 0.69	–	21.15 ± 0.53	16.15 ± 0.4	12.59 ± 0.31	10 ± 0.24	8.08 ± 0.19	6.63 ± 0.16
100 kPa, x1 = 0.4	24.68 ± 0.23	–	18.85 ± 0.17	14.7 ± 0.14	11.68 ± 0.11	9.43 ± 0.09	7.73 ± 0.07	6.42 ± 0.06
100 kPa, x1 = 0.5	22 ± 2.2	–	17.5 ± 1.8	13.5 ± 1.4	11 ± 1.1	9 ± 0.9	7.5 ± 0.8	6.3 ± 0.6
101 kPa, x2 = 0.333	–	16.3 ± 0.7	–	–	–	–	–	–

c1ccncc1 + CC(O)CO
101 kPa
Conditions	viscosity [mPa·s]
293.15 K, x1 = 0.2999	15.55 ± 0.07
303.15 K, x1 = 0.8	1.425 ± 0.0099
308.15 K, x1 = 0.7001	1.795 ± 0.011
318.15 K, x1 = 0.4	3.855 ± 0.018

c1ccncc1 + CCC(C)=O
100 kPa
Conditions	viscosity [mPa·s]
308.15 K, x1 = 0.1006	0.3835 ± 0.0061
313.15 K, x1 = 0.597	0.5265 ± 0.0074
323.15 K, x1 = 0.4004	0.4095 ± 0.0063

CCOC(=O)C(Br)CC (stereo not drawn) + CCCCCC
303.15 K, 101 kPa
Conditions	viscosity [mPa·s]
x1 = 0.1972	0.3726 ± 0.0047
x1 = 0.3889	0.5074 ± 0.0051
x1 = 0.4924	0.6029 ± 0.0055
x1 = 0.5981	0.7246 ± 0.0059
x1 = 0.7949	1.032 ± 0.0071

CCCCCCC(C)O (stereo not drawn) + CCCCCCCC
298.15 K, 101 kPa
Conditions	viscosity [mPa·s]
x2 = 0.0487	5.956 ± 0.057
x2 = 0.1002	5.301 ± 0.049
x2 = 0.1498	4.654 ± 0.043
x2 = 0.2006	3.998 ± 0.036
x2 = 0.2516	3.364 ± 0.029
x2 = 0.3003	2.796 ± 0.024
x2 = 0.3538	2.228 ± 0.019
x2 = 0.4003	1.79 ± 0.015
x2 = 0.4466	1.411 ± 0.012
x2 = 0.5001	1.049 ± 0.01
x2 = 0.5517	0.778 ± 0.009
x2 = 0.6002	0.59 ± 0.008
x2 = 0.6539	0.454 ± 0.007
x2 = 0.6994	0.39 ± 0.007
x2 = 0.7449	0.366 ± 0.007
x2 = 0.8	0.376 ± 0.007
x2 = 0.8465	0.402 ± 0.007
x2 = 0.9003	0.434 ± 0.007
x2 = 0.9521	0.441 ± 0.007

CCCCCCC(C)O (stereo not drawn) + CCCCCCCCCCCC
298.15 K, 101 kPa
Conditions	viscosity
x1 = 0.0003	1.337 ± 0.011 mPa·s
x2 = 0.0554	5.513 ± 0.051 mPa·s and 5.51 ± 0.07 mPa·s
x2 = 0.0999	4.916 ± 0.045 mPa·s and 4.92 ± 0.07 mPa·s
x2 = 0.1554	4.254 ± 0.037 mPa·s and 4.25 ± 0.07 mPa·s
x2 = 0.1998	3.786 ± 0.032 mPa·s and 3.79 ± 0.06 mPa·s
x2 = 0.2555	3.272 ± 0.027 mPa·s and 3.27 ± 0.06 mPa·s
x2 = 0.2998	2.916 ± 0.023 mPa·s and 2.92 ± 0.06 mPa·s
x2 = 0.3554	2.532 ± 0.02 mPa·s and 2.53 ± 0.06 mPa·s
x2 = 0.3998	2.27 ± 0.018 mPa·s and 2.27 ± 0.06 mPa·s
x2 = 0.4554	1.995 ± 0.015 mPa·s and 2 ± 0.06 mPa·s
x2 = 0.4999	1.813 ± 0.014 mPa·s and 1.81 ± 0.06 mPa·s
x2 = 0.5555	1.627 ± 0.013 mPa·s and 1.63 ± 0.06 mPa·s
x2 = 0.5998	1.508 ± 0.012 mPa·s and 1.51 ± 0.06 mPa·s
x2 = 0.6555	1.391 ± 0.011 mPa·s and 1.39 ± 0.06 mPa·s
x2 = 0.6998	1.32 ± 0.011 mPa·s and 1.32 ± 0.06 mPa·s
x2 = 0.7554	1.253 ± 0.01 mPa·s and 1.25 ± 0.06 mPa·s
x2 = 0.7998	1.213 ± 0.01 mPa·s and 1.21 ± 0.06 mPa·s
x2 = 0.8555	1.176 ± 0.01 mPa·s and 1.18 ± 0.06 mPa·s
x2 = 0.8999	1.152 ± 0.01 mPa·s and 1.15 ± 0.06 mPa·s
x2 = 0.9555	1.124 ± 0.009 mPa·s and 1.12 ± 0.06 mPa·s

CCCCCCC(C)O (stereo not drawn) + CCCCCCCCCCCCCC
298.15 K, 101 kPa
Conditions	viscosity [mPa·s]
x1 = 0.0003	2.081 ± 0.016
x2 = 0.0555	5.619 ± 0.052
x2 = 0.0999	5.163 ± 0.047
x2 = 0.1555	4.632 ± 0.041
x2 = 0.1998	4.238 ± 0.037
x2 = 0.2554	3.786 ± 0.032
x2 = 0.2998	3.455 ± 0.029
x2 = 0.3555	3.081 ± 0.025
x2 = 0.3999	2.813 ± 0.022
x2 = 0.4554	2.519 ± 0.02
x2 = 0.4999	2.314 ± 0.018
x2 = 0.5555	2.098 ± 0.016
x2 = 0.5998	1.957 ± 0.015
x2 = 0.6554	1.82 ± 0.014
x2 = 0.7	1.741 ± 0.013
x2 = 0.7555	1.683 ± 0.013
x2 = 0.8	1.668 ± 0.013
x2 = 0.8555	1.688 ± 0.013
x2 = 0.9	1.736 ± 0.013
x2 = 0.9553	1.835 ± 0.014

CCCCCCCCCC(=O)O + CCCCCCCCCCCCCC
100 kPa, x2 = 0.8601
Conditions	viscosity [mPa·s]
298.2 K	2.37 ± 0.14
308.2 K	1.9 ± 0.12
318.2 K	1.54 ± 0.09

CCCCCCCCCC(=O)O + CCCCCCCCCCCCCCC
100 kPa, x2 = 0.8127
Conditions	viscosity [mPa·s]
298.2 K	2.95 ± 0.18
308.2 K	2.29 ± 0.14
318.2 K	1.83 ± 0.11

CCCCCCCCCC(=O)O + CCCCCCCCCCCCCCCC
100 kPa, x2 = 0.6321
Conditions	viscosity [mPa·s]
298.2 K	4.1 ± 0.25
308.2 K	3.09 ± 0.19
318.2 K	2.41 ± 0.15

CCCCCCCCCC(=O)O + CCCCCCCCCCCCCCCCC
100 kPa, x2 = 0.5591
Conditions	viscosity [mPa·s]
298.2 K	4.83 ± 0.29
308.2 K	3.6 ± 0.22
318.2 K	2.77 ± 0.17

O=C(c1ccccc1)c1ccccc1 + CCCCCOC(C)=O
298.15 K, 101 kPa
Conditions	viscosity [mPa·s]
x1 = 0.0417	0.8506 ± 0.01
x1 = 0.0472	0.8646 ± 0.011

c1c[nH]cn1 + CCCC[N+](CCCC)(CCCC)CCCC.[Br-]
101.3 kPa, x2 = 0.3
Conditions	viscosity [mPa·s]
293.15 K	810 ± 180
296.15 K	540 ± 120
303.15 K	314 ± 66
313.15 K	144.8 ± 30
323.15 K	75 ± 15

c1ccncc1 + CCCCn1cc[n+](C)c1.F[B-](F)(F)F
Conditions	viscosity [mPa·s]
298.15 K, 101 kPa, x1 = 0.1059	81.9 ± 17

c1ccncc1 + CCCO
101 kPa
Conditions	viscosity [mPa·s]
303.15 K, x1 = 0.2999	1.165 ± 0.0092
303.15 K, x1 = 0.5	0.9865 ± 0.0088
308.15 K, x1 = 0.2999	1.065 ± 0.009
313.15 K, x1 = 0.1001	1.205 ± 0.0093
323.15 K, x1 = 0.3998	0.7875 ± 0.0084

NCCNCCNCCN + CCO
313.15 K, 100 kPa
Conditions	viscosity [mPa·s]
x1 = 0.02	0.94 ± 0.06
x1 = 0.034	1.1 ± 0.07
x1 = 0.073	1.47 ± 0.09
x1 = 0.17	2.67 ± 0.16

c1ccncc1 + CCO
298.15 K, 101 kPa
Conditions	viscosity [mPa·s]
x1 = 0.2992	1.034 ± 0.017
x1 = 0.4997	0.9591 ± 0.016
x1 = 0.6607	0.8792 ± 0.015
x1 = 0.7996	0.8773 ± 0.015
